# Legend:
# [1] = molecular target: endogenous CGRP receptor (Homo sapiens, UniProt O60894+Q16602); assay: CGRP functional antagonism using SK-N-MC-BLA (4C10), β-lactamase transcriptional reporter assay; type: cell-based; settings: SK-N-MC (4C10) cells, inhibition of β-lactamase expression in the presence of 200 pM CGRP
# [2] = molecular target: T1, CGRP receptor (SK-N-MC membrane) (Homo sapiens, UniProt O60894+Q16602); assay: I125-CGRP binding displacement assay on purified SK-N-MC membrane
# T1 construct: Purified SK-N-MC membrane was purchased from Perkin Elmer; purchased Perkin Elmer; host or cells: SK-N-MC membrane
# T1 sequence (Q16602 23-461): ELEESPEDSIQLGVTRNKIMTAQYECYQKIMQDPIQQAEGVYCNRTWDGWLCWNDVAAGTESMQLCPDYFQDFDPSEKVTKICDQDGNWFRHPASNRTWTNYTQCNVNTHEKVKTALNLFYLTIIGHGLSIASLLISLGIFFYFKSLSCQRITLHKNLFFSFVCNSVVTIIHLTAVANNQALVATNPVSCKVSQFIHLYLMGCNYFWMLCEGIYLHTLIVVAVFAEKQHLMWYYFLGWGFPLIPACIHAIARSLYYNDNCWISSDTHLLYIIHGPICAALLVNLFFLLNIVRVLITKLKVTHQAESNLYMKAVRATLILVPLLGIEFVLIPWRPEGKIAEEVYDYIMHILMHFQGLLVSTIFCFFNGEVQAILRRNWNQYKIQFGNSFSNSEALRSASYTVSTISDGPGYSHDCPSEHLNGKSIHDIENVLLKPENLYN
# T1 sequence (O60894 27-148): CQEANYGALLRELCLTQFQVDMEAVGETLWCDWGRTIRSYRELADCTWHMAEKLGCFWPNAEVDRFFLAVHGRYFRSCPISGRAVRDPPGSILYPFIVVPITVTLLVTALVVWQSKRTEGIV
# Description: Purified SK-N-MC membrane was purchased from Perkin Elmer. The membrane was thawed quickly and placed on ice. The compounds were diluted with CGRP binding solution (25 mM Tris-HCl, pH7.4, 5 mM MgCl2, 0.1% BSA and 0.05% Tween). The membrane was diluted 1:20 with the binding solution and homogenized with Tissue Matster-50 Homogenizer (Omni International) for 30 sec. The homogenized membrane was added to compounds in the binding solution. […] After 2 hour incubation at room temperature, the reaction was stopped by rapid filtration through 0.5% PEI treated GF/C filter plate (Perkin Elmer) and the filter plate was washed with ice-cold washing solution (50 mM Tris HCl, pH7.4, 5 mM MgCl2 and 0.1% BSA) using cell harvestor (Tomtec). The radioactivity of the filter plates were read on Topcount (Packard). The nonspecific binding was determined in the control reaction where 1 uM unlabelled CGRP was preincubated with the membrane prior to I125-CGRP addition. The total binding was determined in the control reaction of the membrane and I125-CGRP in the absence of compound. The percent displacement of I125-CGRP with compounds was calculated using nonspecific and total binding controls. The curve fitting was carried out using MOD3.
# Sequence of endogenous CGRP receptor (Q16602 23-461): as the sequence (Q16602 23-461) above
# Sequence of endogenous CGRP receptor (O60894 27-148): as the sequence (O60894 27-148) above
IC50 [1],Ki [2],SMILES
< 1000 nM,< 1000 nM,O=C(CC1SC(c2ccccc2)N(CC2CCCO2)C1=O)N1CCC(N2Cc3ccccc3NC2=O)CC1 (stereo not shown) [Compound 113]
< 1000 nM,< 1000 nM,CC(C)(C)CCN1C(=O)C(CC(=O)N2CCC(N3Cc4ccccc4NC3=O)CC2)SC1c1ccccc1-n1cccn1 (stereo not shown) [Compound 115]
1000 to 5000 nM,< 1000 nM,C#CCN1C(=O)C(CC(=O)N2CCC(N3Cc4ccccc4NC3=O)CC2)SC1c1ccccc1 (stereo not shown) [Compound 116]
1000 to 5000 nM,< 1000 nM,CC(C)CCN1C(=O)C(CC(=O)N2CCC(N3Cc4ccccc4NC3=O)CC2)[S+]([O-])C1c1ccccc1 (stereo not shown) [Compound 118]
< 1000 nM,< 1000 nM,CC(C)CCN1C(=O)C(CC(=O)N2CCC(N3CCc4ccccc4NC3=O)CC2)SC1c1ccccc1N1CCC(O)CC1 (stereo not shown) [Compound 120]
> 5000 nM,< 1000 nM,CC(C)CCN1C(=O)C(CC(=O)N2CCC(N3Cc4ccccc4NC3=O)CC2)S(=O)(=O)C1c1ccccc1 (stereo not shown) [Compound 122]
1000 to 5000 nM,> 5000 nM,CC(C)CCN1C(=O)C(CC(=O)N2CCC(n3cc(-c4ccccc4)[nH]c3=O)CC2)SC1c1ccc(F)c(F)c1 (stereo not shown) [Compound 127]
1000 to 5000 nM,< 1000 nM,O=C(CC1SC(c2ccccc2)N(CCc2ccccn2)C1=O)N1CCC(N2Cc3ccccc3NC2=O)CC1 (stereo not shown) [Compound 128]
< 1000 nM,< 1000 nM,Cc1cc(C2SC(CC(=O)N3CCC(N4Cc5ccccc5NC4=O)CC3)C(=O)N2CC2CCCCC2)cc2cn[nH]c12 (stereo not shown) [Compound 145]
< 1000 nM,< 1000 nM,O=C(CC1SC(c2ccccc2)N(CC2CCCCC2)C1=O)N1CCC(N2CCc3ccccc3NC2=O)CC1 (stereo not shown) [Compound 147]
1000 to 5000 nM,< 1000 nM,CC(C)CCN1C(=O)[C@H](CC(=O)N2CCC(N3Cc4ccccc4NC3=O)CC2)SC1c1ccccn1 (stereo partly shown) [Compound 148]
< 1000 nM,< 1000 nM,CC(C)CCN1C(=O)C(CC(=O)N2CCC(N3CCc4ccccc4NC3=O)CC2)SC1c1ccccc1F (stereo not shown) [Compound 149]
< 1000 nM,< 1000 nM,CC(C)(C)CCN1C(=O)C(CC(=O)N2CCC(N3CCc4ccccc4NC3=O)CC2)SC1c1ccccc1N1CCC(O)CC1 (stereo not shown) [Compound 150]
< 1000 nM,< 1000 nM,CCOCCCN1C(=O)C(CC(=O)N2CCC(N3Cc4ccccc4NC3=O)CC2)SC1c1ccccc1 (stereo not shown) [Compound 159]
< 1000 nM,< 1000 nM,CC(C)(C)CCN1C(=O)C(CC(=O)N2CCC(N3Cc4ccccc4NC3=O)CC2)SC1c1ccccc1N1CCOCC1 (stereo not shown) [Compound 160]
1000 to 5000 nM,< 1000 nM,CC(C)CCN1C(=O)C(CC(=O)N2CCC(N3Cc4ccccc4NC3=O)CC2)SC1c1cccc(OC(F)(F)F)c1 (stereo not shown) [Compound 169]
< 1000 nM,< 1000 nM,CC(C)CCN1C(=O)C(CC(=O)N2CCC(N3Cc4ccccc4NC3=O)CC2)SC1c1ccccc1F (stereo not shown) [Compound 170]
< 1000 nM,< 1000 nM,Cc1ccccc1C1SC(CC(=O)N2CCC(N3CCc4ccccc4NC3=O)CC2)C(=O)N1CCC(C)C (stereo not shown) [Compound 171]
< 1000 nM,< 1000 nM,Cc1ccccc1C1SC(CC(=O)N2CCC(N3Cc4ccccc4NC3=O)CC2)C(=O)N1CCC(C)C (stereo not shown) [Compound 172]
< 1000 nM,< 1000 nM,CC(C)CCN1C(=O)C(CC(=O)N2CCC(N3Cc4ccccc4NC3=O)CC2)SC12CCSCC2 (stereo not shown) [Compound 174]
< 1000 nM,< 1000 nM,N#Cc1ccccc1C1SC(CC(=O)N2CCC(N3CCc4ccccc4NC3=O)CC2)C(=O)N1CC1CCCCC1 (stereo not shown) [Compound 175]
1000 to 5000 nM,< 1000 nM,CC(C)CCN1C(=O)[C@H](CC(=O)N2CCC(N3Cc4ccccc4NC3=O)CC2)SC1c1ccccn1 (stereo partly shown) [Compound 176]
< 1000 nM,< 1000 nM,CC(C)CCN1C(=O)C(CC(=O)N2CCC(N3Cc4ccccc4NC3=O)CC2)SC1c1cccnc1 (stereo not shown) [Compound 182]
< 1000 nM,< 1000 nM,CC(C)CCN1C(=O)C(CC(=O)N2CCC(N3CCc4ccccc4NC3=O)CC2)SC1c1ccccc1-n1cccn1 (stereo not shown) [Compound 183]
1000 to 5000 nM,< 1000 nM,O=C(CC1SC(c2ccccc2)N(c2ccccc2)C1=O)N1CCC(N2Cc3ccccc3NC2=O)CC1 (stereo not shown) [Compound 187]
< 1000 nM,< 1000 nM,CC(C)CCN1C(=O)C(CC(=O)N2CCC(N3Cc4ccccc4NC3=O)CC2)SC1C1CCCC1 (stereo not shown) [Compound 188]
> 5000 nM,1000 to 5000 nM,O=C(CC1SC(Cc2ccccc2)N(CC(F)(F)F)C1=O)N1CCC(N2Cc3ccccc3NC2=O)CC1 (stereo not shown) [Compound 190]

IC50 [1],Ki [2],SMILES
< 1000 nM,< 1000 nM,CC(C)CCN1C(=O)C(CC(=O)N2CCC(N3CCc4ccccc4NC3=O)CC2)SC1c1c(F)cccc1C(F)(F)F (stereo not shown) [Compound 194]
1000 to 5000 nM,> 5000 nM,CC(C)CCN1C(=O)C(CC(=O)N2CCC(n3cc(-c4ccccc4)[nH]c3=O)CC2)SC12CCCCC2 (stereo not shown) [Compound 195]
< 1000 nM,< 1000 nM,CN(C)c1ccccc1C1SC(CC(=O)N2CCC(N3Cc4ccccc4NC3=O)CC2)C(=O)N1CCC(C)(C)C (stereo not shown) [Compound 198]
< 1000 nM,< 1000 nM,CC(C)CCN1C(=O)C(CC(=O)N2CCC(N3Cc4ccccc4NC3=O)CC2)SC1c1ccc(F)c(F)c1 (stereo not shown) [Compound 202]
1000 to 5000 nM,< 1000 nM,CC(C)CCN1C(=O)C(CC(=O)N2CCC(N3Cc4ccccc4NC3=O)CC2)S(=O)(=O)C1c1ccc(F)cc1F (stereo not shown) [Compound 203]
1000 to 5000 nM,1000 to 5000 nM,Cc1ccc(C2SC(CC(=O)N3CCC(N4Cc5ccccc5NC4=O)CC3)C(=O)N2CCC(C)C)cc1C (stereo not shown) [Compound 204]
< 1000 nM,< 1000 nM,O=C(CC1SC(c2ccccc2)N(Cc2ccc(F)cc2)C1=O)N1CCC(N2Cc3ccccc3NC2=O)CC1 (stereo not shown) [Compound 208]
1000 to 5000 nM,< 1000 nM,CN(C)c1ccccc1C1SC(CC(=O)N2CCC(N3Cc4ccccc4NC3=O)CC2)C(=O)N1CCC(C)(C)C (stereo not shown) [Compound 211]
< 1000 nM,< 1000 nM,CC(C)CCN1C(=O)C(CC(=O)N2CCC(N3Cc4ccccc4NC3=O)CC2)SC1c1ccc(F)cc1F (stereo not shown) [Compound 212]
< 1000 nM,< 1000 nM,COC(=O)[C@@H](CC(C)C)N1C(=O)C(CC(=O)N2CCC(N3CCc4ccccc4NC3=O)CC2)SC1c1ccccc1 (stereo partly shown) [Compound 225]
1000 to 5000 nM,< 1000 nM,CC(C)CC1SC(CC(=O)N2CCC(N3Cc4ccccc4NC3=O)CC2)C(=O)N1CC(F)(F)F (stereo not shown) [Compound 226]
< 1000 nM,< 1000 nM,CC(C)CCN1C(=O)C(CC(=O)N2CCC(N3Cc4ccccc4NC3=O)CC2)SC1c1ccccc1C#N (stereo not shown) [Compound 227]
> 5000 nM,1000 to 5000 nM,O=C(CC1SC(c2ccccc2)N(C2CC2)C1=O)N1CCC(N2Cc3ccccc3NC2=O)CC1 (stereo not shown) [Compound 230]
1000 to 5000 nM,< 1000 nM,O=C(CC1SC(c2ccccc2)N(CCc2ccncc2)C1=O)N1CCC(N2Cc3ccccc3NC2=O)CC1 (stereo not shown) [Compound 236]
< 1000 nM,> 5000 nM,CC(C)CCN1C(=O)C(CC(=O)N2CCC(n3cc(-c4ccccc4)[nH]c3=O)CC2)SC1c1ccc(F)cc1F (stereo not shown) [Compound 237]
1000 to 5000 nM,< 1000 nM,CC(C)CCN1C(=O)C(CC(=O)N2CCC(N3Cc4ccccc4NC3=O)CC2)SC1c1cccc(OC(F)(F)C(F)F)c1 (stereo not shown) [Compound 240]
< 1000 nM,< 1000 nM,CC(C)(C)CCN1C(=O)C(CC(=O)N2CCC(N3CCc4ccccc4NC3=O)CC2)SC1c1ccccc1F (stereo not shown) [Compound 244]
< 1000 nM,> 5000 nM,Cc1cc(C2SC(CC(=O)N3CCC(n4cc(-c5ccccc5)[nH]c4=O)CC3)C(=O)N2CCC(C)C)cc2cn[nH]c12 (stereo not shown) [Compound 248]
> 5000 nM,1000 to 5000 nM,CC(C)(C)N1C(=O)C(CC(=O)N2CCC(N3Cc4ccccc4NC3=O)CC2)SC1c1ccccc1 (stereo not shown) [Compound 251]
1000 to 5000 nM,< 1000 nM,"CC(C)N1C(=O)C(CC(=O)N2CCC(N3Cc4ccccc4NC3=O)CC2)SC1c1ccccc1 (stereo not shown) [Compound 255, 3,4-Dihydro-3-(1-(2-(3-isopropyl-4-oxo-2-phenylthiazolidin-5-yl)acetyl)piperidin-4-yl)quinazolin-2(1H)-one]"
< 1000 nM,< 1000 nM,CC(C)CCN1C(=O)C(CC(=O)N2CCC(N3Cc4ccccc4NC3=O)CC2)SC1c1c(F)cccc1C(F)(F)F (stereo not shown) [Compound 256]
< 1000 nM,< 1000 nM,CC(C)CCN1C(=O)C(CC(=O)N2CCC(n3cc4ccccc4nc3=O)CC2)SC1c1ccccc1 (stereo not shown) [Compound 259]
< 1000 nM,< 1000 nM,CC(C)CCN1C(=O)C(CC(=O)N2CCC(N3CCc4ccccc4NC3=O)CC2)SC1c1ccccc1-n1ccnc1 (stereo not shown) [Compound 260]
< 1000 nM,< 1000 nM,CN(C)c1ccccc1C1SC(CC(=O)N2CCC(N3CCc4ccccc4NC3=O)CC2)C(=O)N1CCC(C)(C)C (stereo not shown) [Compound 263]
< 1000 nM,< 1000 nM,O=C(CC1SC(c2ccccc2)N(CC2CCCCC2)C1=O)N1CCC(N2Cc3ccccc3NC2=O)CC1 (stereo not shown) [Compound 264]
< 1000 nM,< 1000 nM,N#Cc1ccccc1C1SC(CC(=O)N2CCC(N3Cc4ccccc4NC3=O)CC2)C(=O)N1CC1CCCCC1 (stereo not shown) [Compound 265]

# From US8163737B2 (Vertex Pharmaceuticals Incorporated, priority 2006, dated 2012)
